≈ marks a conversion by molar mass, not a printed value. A value given as a limit tells only on which side of the number the result lay.

Five compounds from patent US6407288B1, “Naphthylsalicylanilides as antimicrobial and antiinflammatory agents” (The Research Foundation of State University of New York, priority 2000, dated 2002) can be followed below.

Test [1] deals with M. luteus. The test can be described thus: MIC microdilution, gram positive. It is filed as cell-based, Micrococcus luteus. The note with it: Micrococcus luteus; Table 2, Gram Positive. The procedure, abridged: (§1)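 Modified NCCLS broth microdilution: aerobes in full-strength BHI, anaerobes in half-strength BHI with yeast extract, hemin and menadione, each well given 10 µL of a ~1×10^8 CFU/mL inoculum. Drugs ranged 50–0.05 µg/assay, run in duplicate, incubated 24–48 h, anaerobically under 5% CO2/10% H2/N2 where needed. MIC was the lowest concentration with no visible growth.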

In test [2] the test system is S. sanguis. Description: MIC microdilution, gram positive. Format: cell-based, Streptococcus sanguis. The note with it: Streptococcus; Table 1, Gram Positive. The procedure, abridged:
as §1

The test system of test [3] is Pg 53977. Description: MIC microdilution, gram negative. It is filed as cell-based, Porphyromonas gingivalis. The settings on record: for MIC: Porphyromonas gingivalis, 53977, Table 3, Gram Negative; for MIC Pg 53977: Table 3 printed a second time, Gram Negative. The procedure, abridged:
(§2)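 Modified NCCLS broth microdilution; anaerobes grown 48-72 hrs in half-strength BHI with yeast extract, hemin and menadione, aerobes in full-strength BHI, inoculum ~1×10^8 CFU/mL (10 μL/assay). Drugs from DMSO stock, final 50 to 0.05 μg/assay, duplicate, 24 to 48 hrs (anaerobic: 5% CO2, 10% H2, N2); MIC = lowest concentration without visible growth.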

Test [4] deals with P. ging 381. Description: MIC microdilution, gram negative. Format: cell-based, Porphyromonas gingivalis. The note with it: for MIC: Porphyromonas gingivalis, 381, Table 3, Gram Negative; for MIC P. ging 381: Table 3 printed a second time, Gram Negative. A digest of the protocol:
as §2

The test system of test [5] is S. aureus. Description: MIC microdilution, gram positive. It is filed as cell-based, Staphlococcus aureus. The note with it: for MIC: Staphylococcus aureus. A digest of the protocol:
(§3)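 Broth microdilution (modified NCCLS M7-A4): BHI for aerobes, supplemented half-strength BHI under 5% CO2/10% H2/N2 for anaerobes; 10 μL of ~1×10^8 CFU/mL inoculum; drugs 50 to 0.05 μg/assay from DMSO stock. Duplicates incubated 24–48 h; MIC = lowest concentration without visible growth. Staphylococcus R: coagulase-negative clinical isolate 00-045-1209.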

Test [6] has as its system S. species R. The test can be described thus: Staphylococcus MIC. Format: cell-based, staphylococcus species R. The settings on record: for MIC: Staphylococcus, second Table 5 (Example 5), strain 00-045-1209. The procedure, abridged: as §3
For test [7], the system named is P. acnes 11828. The test can be described thus: MIC microdilution, gram positive. Format: cell-based, Propionibacterium acnes. The note with it: Cutibacterium acnes, 11828; Table 1, Gram Positive. A digest of the protocol:
as §1

In test [8] the test system is P. acnes 6922. The test can be described thus: MIC microdilution, gram positive. Format: cell-based, Propionibacterium acnes. The settings on record: Cutibacterium acnes, 6922; Table 1, Gram Positive. The procedure, abridged: as §1
Test [9] relates to B. fragilis. The test can be described thus: MIC microdilution, gram negative. Format: cell-based, Bacteroides fraglis. The settings on record: for MIC: Bacteroides fragilis, Table 3, Gram Negative; for MIC B. fragilis: Table 3 printed a second time, Gram Negative. The procedure, abridged: as §2

As for `O=C(Nc1cccc(C(F)(F)F)c1)c1cc(C(=O)c2cccc3ccccc23)ccc1O` [NA1mF], the MIC in test [1] is 0.8 µg/mL (≈ 1.84 µM); in test [2] it was 0.8 µg/mL (≈ 1.84 µM); in [3], less than 0.1 µg/mL; in test [4], less than 0.1 µg/mL; in test [5] (second Table 5 (Example 5)), 3.1 µg/mL (≈ 7.12 µM); in test [6], 1.6 µg/mL (≈ 3.67 µM). Further, the minimal inhibitory concentration (MIC) amounted to 0.4 µg/mL (≈ 0.919 µM) in test [7], 0.2 µg/mL (≈ 0.459 µM) in test [8] and 3.1 µg/mL (≈ 7.12 µM) in test [9]. Also, in [3], the “MIC Pg 53977” value is reported as less than 0.1 micrograms/ml. In test [4], the “MIC P. ging 381” value is less than 0.1 micrograms/ml. Besides, the “sensitivity of staphylococcus species R to the compounds” value in test [6] (statement in text referring to Table 5) was “highest effect”. Also, in [9], the “MIC B. fragilis” value amounted to 3.1 micrograms/ml.

For the compound `CCCCc1ccc(C(=O)c2ccc(O)c(C(=O)Nc3cccc(C(F)(F)F)c3)c2)cc1` [BBAmF, reference compound], the MIC in test [1] was 3.1 µg/mL (≈ 7.02 µM); in test [2], more than 50 µg/mL; in test [3] it was less than 0.4 µg/mL; in test [4], less than 0.4 µg/mL; in test [5] (Table 2, Gram Positive), more than 50 µg/mL; in [6] it was more than 50 µg/mL. In addition, the MIC in [7] was 0.8 µg/mL (≈ 1.81 µM); in test [8], 0.2 µg/mL (≈ 0.453 µM); in [9] it was more than 50 µg/mL. Further, the “MIC Pg 53977” value in [3] is on record as less than 0.4 micrograms/ml. Besides, the “MIC P. ging 381” value in test [4] is less than 0.4 micrograms/ml. Moreover, in test [5] (second Table 5 (Example 5)), the “MIC S. aureus” value is on record as “NE (NE indicates that the drug was not effective at a concentration >50 micrograms/ml)”. In [9], the “MIC B. fragilis” value is “NE (NE indicates that the drug was not effective at a concentration >50 micrograms/ml)”.

Consider `N#Cc1cccc(NC(=O)c2cc(C(=O)c3cccc4ccccc34)ccc2O)c1` [NA1mC], for which the MIC was found to be 3.1 µg/mL (≈ 7.9 µM) in test [1]; 6.3 µg/mL (≈ 16.1 µM) in test [2]; 0.8 µg/mL (≈ 2.04 µM) in test [3]; 0.4 µg/mL (≈ 1.02 µM) in test [4]; 12.5 µg/mL (≈ 31.9 µM) in [5] (second Table 5 (Example 5)); 25 µg/mL (≈ 63.7 µM) in test [6]. Besides, the MIC in test [7] is 6.3 µg/mL (≈ 16.1 µM); in test [8], 6.3 µg/mL (≈ 16.1 µM); in [9], more than 50 µg/mL. Moreover, the “MIC Pg 53977” value in [3] is given as 0.8 micrograms/ml. Also, the “MIC P. ging 381” value in test [4] is reported as 0.4 micrograms/ml. In addition, in test [9], the “MIC B. fragilis” value was “NE (NE indicates that the drug was not effective at a concentration >50 micrograms/ml)”.

On to `N#Cc1cccc(NC(=O)c2cc(C(=O)c3ccc(-c4ccccc4)cc3)ccc2O)c1` [BPAmC, reference compound], for which the MIC in test [1] was 3.1 µg/mL (≈ 7.41 µM); in [2], more than 50 µg/mL; in [3] it was less than 0.4 µg/mL; in test [4] it was less than 0.4 µg/mL; in [5] (Table 2, Gram Positive) it was more than 50 µg/mL; in [6], more than 50 µg/mL. In addition, the figures for the MIC in test [7], in test [8] and in test [9] were 12.5 µg/mL (≈ 29.9 µM), 0.2 µg/mL (≈ 0.478 µM) and 50 µg/mL (≈ 119 µM), respectively. Moreover, the “MIC Pg 53977” value in test [3] is recorded as less than 0.4 micrograms/ml. In addition, the “MIC P. ging 381” value in [4] was less than 0.4 micrograms/ml. In addition, the “MIC S. aureus” value in [5] (second Table 5 (Example 5)) is recorded as “NE (NE indicates that the drug was not effective at a concentration >50 micrograms/ml)”. In addition, in test [9], the “MIC B. fragilis” value came to 50 micrograms/ml.

Consider `O=C(c1ccc(-c2ccccc2)cc1)c1ccc(O)c(C(=O)Nc2cccc(C(F)(F)F)c2)c1` [BPAmF, reference compound], for which the MIC in test [1] was 3.1 µg/mL (≈ 6.72 µM); in [2], more than 50 µg/mL; in test [3], less than 0.4 µg/mL; in [4], less than 0.4 µg/mL; in test [5] (Table 2, Gram Positive), more than 50 µg/mL; in test [6], more than 50 µg/mL. Also, the MIC turned out to be 0.4 µg/mL (≈ 0.867 µM) in test [7], 0.2 µg/mL (≈ 0.433 µM) in test [8] and 50 µg/mL (≈ 108 µM) in test [9]. Also, the “MIC Pg 53977” value in [3] is on record as less than 0.4 micrograms/ml. Moreover, the “MIC P. ging 381” value in test [4] was less than 0.4 micrograms/ml. Also, the “MIC S. aureus” value in [5] (second Table 5 (Example 5)) is given as “NE (NE indicates that the drug was not effective at a concentration >50 micrograms/ml)”. Besides, the “MIC B. fragilis” value in test [9] is recorded as 50 micrograms/ml.
